The numbers were not newly measured in PMC12451523 (RSC Advances, 2025), which cites them from elsewhere.

Molecules are shown by their SMILES.

The IC50 is the concentration needed to halve the response being measured.

The target in the data set is fungal tyrosinase. The note with it: read-out: IC50 (μM) ± S.E., standard inhibitors, ref [50].

Consider `O=C1O[C@H]([C@@H](O)CO)C(O)=C1O` [Ascorbic acid], for which the IC50 is 11.5 ± 1 µM.

Consider `O=c1cc(CO)occ1O` [Kojic acid], for which the half-maximal inhibitory concentration (IC50) was 30.3 ± 1 µM.
